# Measured values: US20260256812A1, “COMPOSITION COMPRISING A COMBINATION OF A CORTICOSTEROID AND A FLAVONOID FOR USE IN TREATING EYE-RELATED DISEASES” (priority 2023, published 2026)
# Experiments:
# [1] = tested on: intracellular ROS in ARPE-19 cells; assay: DCFH-DA intracellular ROS assay by flow cytometry; assay type: cell-based, human
# Method: ARPE-19 cells were seeded onto 6-well plates at a seeding density of 25×10^4 cells/well and incubated for 24 hr. At the 24 hr time point cells were stimulated with stimulants to induce oxidative stress. […] Upon incubation with dye, cells were detached using trypsin and resuspended in PBS for analysis using flow cytometry.
# Upon stimulation and treatment, the intracellular ROS levels were measured using flow cytometry to assess the anti-oxidant effect of the treatments. The oxidation of DCFH-DA to 2′-7′dichlorofluorescein (DCF) was used for the detection of intracellular ROS levels including nitrogen dioxide and hydroxyl radicals. The cells will take up the DCFH-DA dye where cellular esterase cleaves off the acetyl groups, resulting in the formation of DCFH (2′,7′-dichlorodihydrofluorescein). Oxidation of DCFH in the presence of intracellular ROS leads to the formation of DCF. This DCF fluorescent molecule can be detected using a flow cytometer by mean fluorescence intensity (MFI).
# [2] = tested on: ARPE-19 cells; assay: Cytotoxicity evaluation by acid phosphatase assay (APA); assay type: cell-based, human
# Method: ARPE-19 (adult retinal pigment epithelium-19) cell line was cultured using cell culture media containing a 1:1 mixture of DMEM and F-12 nutrient mixture. The media was supplemented with 10% FBS and 1% penicillin-streptomycin antibiotic mixture. During the culture, cells were maintained at 37° C. with 5% CO2 in a humidified incubator and sub-cultured with trypsin upon confluency.
# Cytotoxicity evaluation of the drugs, both individually and in combination, was performed using the acid phosphatase assay (APA). The cytotoxicity assay was performed on TA and QCN from 5 to 250 μM and 1 to 250 μM, respectively. After investigating individual drugs, drug combinations were tested as outlined in Table 1.
# Initially ARPE-19 cells were seeded onto a 96-well plate at a seeding density of 5000 cells/well containing 100 μL of cell culture media and cultured for 24 hr. After 24 hr, treatments were added to the wells and incubated for the period of the study (24 h and 48 hr). After the treatment period, media was removed, and cells were washed twice with PBS. Upon washing, 100 μL of 10 mM PNPP substrate dissolved in 0.1 M sodium acetate buffer was added to the wells and incubated for 2 hr. Finally, 50 μL of stop solution (1 M sodium hydroxide) was added and the plate was analysed in the plate reader at 405 nm.
# [3] = tested on: IL-6; assay: IL-6 ELISA on ARPE-19 cell supernatants; assay type: cell-based, human
# Method: The human IL-6, IL-8, MCP-1, and VEGF-C ELISA kits were used according to the manufacturer's protocol to investigate the cytokine secretions in the cell supernatants. Cells were seeded onto a 24-well plate at a seeding density of 3×10^4 cells/well with 500 μL of cell culture media and cultured for 24 hr. Cells were kept overnight in low serum media (with 1% FBS) to synchronise their growth phase before stimulating inflammation. […] Upon stimulation, cells were exposed to various treatments of drugs alone and in combination for 24 hr. After the treatment duration media conditioned by treated cells were collected and analysed for the cytokines and VEGF-C secretions using the ELISA kits. ELISA was performed according to the manufacturer's protocol.
# [4] = DPPH antioxidant assay
# Method: The DPPH assay was performed in a 96-well plate where 20 μL of methanolic DPPH solution was added to 180 μL of methanolic solutions of treatments. Based on the outcome from anti-inflammatory studies, the higher concentrations of TA and QCN, both individually and in combination were investigated for antioxidant activity (TA 75, 100 μM and QCN 15, 20 μM). This reaction mixture was incubated for 30 min in darkness at room temperature and the absorbance was measured at 517 nm using a microplate reader.
# [5] = tested on: ARPE-19 cells; assay: Scratch (wound healing, cell migration) assay; assay type: cell-based, human; conditions: QCN 20 μM; TA 100 μM; TA 100+QCN 20 μM; 1% FBS
# Method: For the scratch or wound healing assay cells were seeded onto six-well plates with a seeding density of 25×10^4 cells/well. Upon reaching 80-90% confluency, a sterile 200 μL pipette tip was used to scrape the confluent monolayer of cells in a horizontal line. After creating the scratch, cell debris was washed with PBS and the cell culture media containing treatments was added to each well. The scratch was photographed using an Olympus EP50 microscope at 10× magnification at 0, 6, 9, 24, 27 and 30 h. “Image J” software was used to analyse the width of the scratch.
# The major cause of irreversible vision loss is the exudative form of AMD, which is characterized by CNV where the newly formed blood vessels protrude from the choroid to the retina through Bruch's membrane. Even though the mechanism of CNV is not fully understood, some pathological studies point to the connection between CNV and sub-RPE deposits. Additionally, focal inflammation leads to focal thinning and damage of Bruch's membrane in patients of AMD. RPE cells are essential for the maintenance of photoreceptor cells as they provide nutrients. But the contact between RPE and photoreceptor cells was disrupted due to the accumulation of sub-RPE deposits and the interference of branched blood vessels. […] Upon seeding 25×10^4 cells/well and reaching around 90% confluency, the wounds were created and measured using image ‘J’ software. […]
# [6] = tested on: VEGF-C; assay: Anti-VEGF activity, VEGF-C ELISA on LPS-stimulated ARPE-19 cells; assay type: cell-based, human
# Method: The human IL-6, IL-8, MCP-1, and VEGF-C ELISA kits were used according to the manufacturer's protocol to investigate the cytokine secretions in the cell supernatants. Cells were seeded onto a 24-well plate at a seeding density of 3×10^4 cells/well with 500 μL of cell culture media and cultured for 24 hr. Cells were kept overnight in low serum media (with 1% FBS) to synchronise their growth phase before stimulating inflammation. After 24 hr cells were stimulated with 10 μg/mL LPS to induce inflammation for a duration of 24 hr. Upon stimulation, cells were exposed to various treatments of drugs alone and in combination for 24 hr. After the treatment duration media conditioned by treated cells were collected and analysed for the cytokines and VEGF-C secretions using the ELISA kits. ELISA was performed according to the manufacturer's protocol.
# [7] = 10 μg/mL LPS 24 hr, then 24 hr treatment
# [8] = TA 10 to 250 μM, 24 hr and 48 hr
compound,measurement,setting,value
"OO [H2O2, hydrogen peroxide]",MFI of stimulated stained cells,"[1]; HP at 300 μM, unstimulated stained printed as 3.73±0.29, P value <0.05",2.01±0.10
same,cell viability with stimulant,"[2]; H2O2 200 and 300 μM, up to 48 h",decrease in cell viability
"O=c1c(O)c(-c2ccc(O)c(O)c2)oc2cc(O)cc(O)c12 [QCN, quercetin]",IL-6 expression compared to LPS stimulated cells,[3]; [7],decreased
same,concentration showing maximum inhibition of IL-6 expression,[3]; [7],20 µM
same,inhibition of DPPH,[4]; QCN 20 μM,66.71±0.61%
same,anti-oxidant effect on DPPH free radical,"[4]; TA 75, 100 μM, QCN 15, 20 μM, 30 min",strong anti-oxidant effect
same,migration of the cells,[5],enhanced the migration
same,generated ROS (MFI) compared to control stimulated stained cells,"[1]; 300 μM H2O2, TA 75, 100 μM, QCN 15, 20 μM, individually and in combination, 24 hr",significantly suppressed
same,VEGF-C concentration,"[6]; QCN 20 μM, control LPS stimulated 1.96±2.05",0.83 ± 0.02 µg/mL
same,expression of VEGF-C compared to LPS stimulated cells,"[6]; TA 75, 100 μM, QCN 15, 20 μM, individually and in combination",better suppression
same,cell viability,[2]; QCN 1 to 20 μM,more than 90%
same,effect on cells at higher concentrations,"[2]; QCN above 25 μM, up to 250 μM",toxic effects
same,cell viability,"[2]; QCN concentration up to 25 μM, 24 hr and 48 hr",more than 80%
"CC1(C)O[C@@H]2C[C@H]3[C@@H]4CCC5=CC(=O)C=C[C@]5(C)[C@@]4(F)[C@@H](O)C[C@]3(C)[C@]2(C(=O)CO)O1 [TA, triamcinolone acetonide]",concentration showing maximum inhibition of IL-6 expression,[3]; [7],100 µM
same,cell morphology,[2]; [8],no changes in cell morphology
same,viability of cells,[2]; [8],not affected
lipopolysaccharide [LPS],IL-6 cytokine on stimulation,[3]; LPS stimulation from 10 to 50 μg/mL,consistently increased
same,cytotoxicity of stimulant,"[2]; LPS 0.5 to 100 μg/mL, up to 48 h",non-toxic
